Results: ChEMBL document CHEMBL1132503, “N'-[2-(2-thiophene)ethyl]-N'-[2-(5-bromopyridyl)] thiourea as a potent inhibitor of NNI-resistant and multidrug-resistant human immunodeficiency virus-1” (Bioorg Med Chem Lett, 1999)

Tests used:
[1] = Ability to inhibit the replication of A17 variant (Y181C,K103N) strain of HIV-1 p24 antigen production in PBMC; format: functional, Homo sapiens
[2] = Ability to inhibit the replication of RT-MDR (V106A) strain of HIV-1 p24 antigen production in PBMC; format: functional; conditions: Homo sapiens
[3] = Ability to inhibit the replication of A17 (Y181C) strain of HIV-1 p24 antigen production in PBMC; format: functional; conditions: Homo sapiens
[4] = Ability to inhibit the replication of HTLV IIIb strain of HIV-1 p24 antigen production in PBMC; format: functional; conditions: Homo sapiens
[5] = Cytotoxicity was evaluated using microculture tetrazolium assay (MTA); format: functional; conditions: Homo sapiens
[6] = Cytotoxic concentration was evaluated using microculture tetrazolium assay (MTA); format: functional; conditions: Homo sapiens
[7] = target: Human immunodeficiency virus type 1 reverse transcriptase (Human immunodeficiency virus 1) (UniProt Q72547); assay: (§1) Inhibition of recombinant reverse transcriptase (RT) in cell-free Quan-T-RT assay system
[8] = target: Human immunodeficiency virus type 1 reverse transcriptase (Human immunodeficiency virus 1, UniProt Q72547); assay: as §1

IC90 [7] [nM] | IC50 [8] [nM] | SMILES | IC50 [1] [nM] | IC50 [2] [nM] | IC50 [3] [nM] | IC50 [4] [nM] | CC50 [5] [nM] | CC50 [6] [nM]
– | – | Fc1ccccc1CC/N=C(\S)Nc1ccc(Br)cn1 | 41000 | 5 | 200 | < 1 | > 100000 | –
– | – | Cc1ccnc2c1NC(=O)c1cccnc1N2C1CC1 [NEVIRAPINE] | > 100000 | 5000 | > 100000 | 34 | – | 10500
– | – | CCOCn1c(Cc2ccccc2)c(C(C)C)c(=O)[nH]c1=O [EMIVIRINE] | – | 270 | – | – | – | > 100000
> 100000 | > 100000 | S=C(NCCN1CCOCC1)Nc1ccc(Br)cn1 | – | – | – | – | – | –
> 100000 | 1200 | S=C(NCCc1ccco1)Nc1ccc(Br)cn1 | – | – | – | – | – | –
> 100000 | 900 | S=C(NCCc1c[nH]c2ccccc12)Nc1ccc(Br)cn1 | – | – | – | – | – | –
> 100000 | > 100000 | CN1CCCC1CC/N=C(\S)Nc1ccc(Br)cn1 (stereo unspecified) | – | – | – | – | – | –
> 100000 | 4900 | S=C(NCCN1CCCC1)Nc1ccc(Br)cn1 | – | – | – | – | – | –
> 100000 | 700 | S=C(NCCc1ccc2c(c1)OCO2)Nc1ccc(Br)cn1 | – | – | – | – | – | –
– | – | CC(C)Nc1cccnc1N1CCN(C(=O)c2cc3cc(NS(C)(=O)=O)ccc3[nH]2)CC1 [DELAVIRDINE] | > 100000 | 400 | 50000 | 9 | – | 3600

SMILES | IC90 [7] [nM] | IC50 [8] [nM] | IC50 [1] [nM] | IC50 [2] [nM] | IC50 [3] [nM] | IC50 [4] [nM] | CC50 [5] [nM] | CC50 [6] [nM]
S=C(NCCc1cnc[nH]1)Nc1ccc(Br)cn1 | – | > 100000 | – | – | – | – | – | –
S=C(NCCc1ccccn1)Nc1ccc(Br)cn1 [TROVIRDINE] | 12000 | 600 | > 100000 | 20 | 500 | 7 | – | > 100000
S=C(NCCc1cccs1)Nc1ccc(Br)cn1 | 15000 | 800 | 3300 | 4 | 48 | 30 | – | > 100000
Cc1cn([C@H]2C[C@H](N=[N+]=[N-])[C@@H](CO)O2)c(=O)[nH]c1=O [ZIDOVUDINE] | – | > 100000 | 4 | 200 | 6 | – | – | > 100000
S=C(NCCc1c[nH]cn1)Nc1ccc(Br)cn1 | > 100000 | – | – | – | – | – | – | –
S=C(NCCN1CCCCC1)Nc1ccc(Br)cn1 | – | 600 | > 100000 | > 100000 | > 100000 | 1 | – | > 100000
